Laboratory results published in US6355799B1, “Substituted benzene compounds, process for their preparation, and herbicidal and defoliant compositions containing them” (ISK Americas Incorporated, priority 1997, dated 2002).

Key:
Format in all cases: in vivo
[1] = tested on: upland rice (Oryza sp., var. Tebonnet, RICE); test: Post-emerge test, crop safety; conditions: post-emerge, 14 days after application, rating scale 0-100
Method in brief: (§1)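 Visual ratings on a 0-100 scale (0 no damage, 100 all plants dead) were taken at 14 days after treatment. Rates of 15-1000 g ai/ha in acetone, 187 l/ha, were sprayed onto soil one day after planting (pre-emerge) or onto 2-3 leaf plants with 0.25% v/v surfactant (post-emerge).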

[2] = tested on: field corn (Zea mays L., var. Dekalb 535, CORN); test: Post-emerge test, crop safety; conditions: post-emerge, 14 days after application, rating scale 0-100
Method in brief: as §1

[3] = tested on: redroot pigweed (Amaranthus retroflexus, AMARE); test: Pre-emerge test, greenhouse herbicide activity screening; conditions: rated 14 days after application, 0 = no damage, 100 = complete death
Method in brief: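 Plants grown in 10 cm pots of sandy loam mix received acetone-dissolved compounds through a moving flat-fan nozzle. Doses ranged from 15 to 1000 g ai/ha. Pre-emerge pots were seeded one day earlier, post-emerge pots 8–21 days earlier. Fourteen days on, each pot was graded 0–100 for damage.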

[4] = tested on: johnsongrass (Sorghum halepense, SORHA); test: as above; conditions: rated 14 days after application, 0 = no damage, 100 = complete death
Method in brief: as §1

[5] = tested on: green foxtail (Setaria viridis, SETVI); test: as above; conditions: rated 14 days after application, 0 = no damage, 100 = complete death
Method in brief: as §1

[6] = tested on: velvetleaf (Abutilon theophrasti, ABUTH); test: as above; conditions: rated 14 days after application, 0 = no damage, 100 = complete death
Method in brief: as §1

[7] = tested on: ivyleaf morningglory (Ipomoea hederacea, IPOHE); test: as above; conditions: rated 14 days after application, 0 = no damage, 100 = complete death
Method in brief: as §1

[8] = tested on: common ragweed (Ambrosia artemisizfolia L., AMBEL); test: as above; conditions: rated 14 days after application, 0 = no damage, 100 = complete death
Method in brief: as §1

[9] = tested on: lambsquarters (Chenopodium album, CHEAL); test: as above; conditions: rated 14 days after application, 0 = no damage, 100 = complete death
Method in brief: as §1

[10] = tested on: sicklepod (Cassia obtusifolia, CASOB); test: as above; conditions: rated 14 days after application, 0 = no damage, 100 = complete death
Method in brief: as §1

[11] = tested on: large crabgrass (Digitaria sanguinalis, DIGSA); test: as above; conditions: rated 14 days after application, 0 = no damage, 100 = complete death
Method in brief: as §1

[12] = tested on: barnyardgrass (Echinochloa crus-galli, ECHCG); test: as above; conditions: rated 14 days after application, 0 = no damage, 100 = complete death
Method in brief: as §1

[13] = tested on: upland rice (Oryza sp., var. Tebonnet, RICE); test: Pre-emerge test, crop safety; conditions: rated 14 days after application, 0 = no damage, 100 = complete death
Method in brief: (§2)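 Compounds in acetone were track-sprayed at 15-1000 g ai/ha (187 l/ha) on sandy loam pots: pre-emerge one day after seeding, post-emerge at 2-3 leaf stage with 0.25% v/v non-ionic surfactant. Phytotoxicity was rated 14 days later on a 0 (no damage) to 100 (complete death) scale.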

[14] = tested on: field corn (Zea mays L., var. Dekalb 535, CORN); test: Pre-emerge test, crop safety; conditions: rated 14 days after application, 0 = no damage, 100 = complete death
Method in brief: as §2

[15] = tested on: johnsongrass (Sorghum halepense, SORHA); test: Post-emerge test, greenhouse herbicide activity screening; conditions: post-emerge, 14 days after application, rating scale 0-100
Method in brief: (§3)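 Compounds in acetone were track-sprayed at 187 l/ha, 15–1000 g ai/ha, onto sandy loam pots. Pre-emerge seeds were sown one day before spraying, with surface watering afterwards. Post-emerge plants were at the 2–3 leaf stage and sprayed with 0.25% v/v non-ionic surfactant. Injury was rated 0–100 at 14 days.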

[16] = tested on: redroot pigweed (Amaranthus retroflexus, AMARE); test: as above; conditions: post-emerge, 14 days after application, rating scale 0-100
Method in brief: as §3

[17] = tested on: green foxtail (Setaria viridis, SETVI); test: as above; conditions: post-emerge, 14 days after application, rating scale 0-100
Method in brief: as §3

[18] = tested on: velvetleaf (Abutilon theophrasti, ABUTH); test: as above; conditions: post-emerge, 14 days after application, rating scale 0-100
Method in brief: as §3

[19] = tested on: ivyleaf morningglory (Ipomoea hederacea, IPOHE); test: as above; conditions: post-emerge, 14 days after application, rating scale 0-100
Method in brief: as §3

[20] = tested on: common ragweed (Ambrosia artemisizfolia L., AMBEL); test: as above; conditions: post-emerge, 14 days after application, rating scale 0-100
Method in brief: as §3

[21] = tested on: lambsquarters (Chenopodium album, CHEAL); test: as above; conditions: post-emerge, 14 days after application, rating scale 0-100
Method in brief: as §3

[22] = tested on: sicklepod (Cassia obtusifolia, CASOB); test: as above; conditions: post-emerge, 14 days after application, rating scale 0-100
Method in brief: as §3

[23] = tested on: large crabgrass (Digitaria sanguinalis, DIGSA); test: as above; conditions: post-emerge, 14 days after application, rating scale 0-100
Method in brief: as §3

[24] = tested on: barnyardgrass (Echinochloa crus-galli, ECHCG); test: as above; conditions: post-emerge, 14 days after application, rating scale 0-100
Method in brief: as §3

COc1c(Cl)cc(F)c(-n2c(=O)cc(C(F)(F)F)n(C)c2=O)c1NC(=O)c1ccc(Cl)c(Cl)c1 [2-59]
90: Pre-emerge Herbicidal Activity, phytotoxicity rating (0-100), SORHA ([4]; 250 g ai/ha) | Pre-emerge Herbicidal Activity, phytotoxicity rating (0-100), AMBEL ([8]; 250 g ai/ha) | phytotoxicity rating CASOB ([22]; 63 g ai/ha)
30: Pre-emerge Herbicidal Activity, phytotoxicity rating (0-100), CASOB ([10]; 63 g ai/ha) | phytotoxicity rating SORHA ([15]; 63 g ai/ha) | phytotoxicity rating DIGSA ([23]; 250 g ai/ha) | phytotoxicity rating ECHCG ([24]; 250 g ai/ha)
9: Pre-emerge Herbicidal Activity, phytotoxicity rating (0-100), ECHCG ([12]; 250 g ai/ha)
70: phytotoxicity rating RICE ([1]; 63 g ai/ha) | phytotoxicity rating CORN ([2]; 63 g ai/ha) | Pre-emerge Herbicidal Activity, phytotoxicity rating (0-100), DIGSA ([11]; 63 g ai/ha) | Pre-emerge phytotoxicity rating (0-100), crop damage, CORN ([14]; 250 g ai/ha) | phytotoxicity rating AMBEL ([20]; 63 g ai/ha)
40: Pre-emerge Herbicidal Activity, phytotoxicity rating (0-100), SORHA ([4]; 63 g ai/ha) | Pre-emerge Herbicidal Activity, phytotoxicity rating (0-100), ECHCG ([12]; 63 g ai/ha)
65: phytotoxicity rating SORHA ([15]; 250 g ai/ha)
20: Pre-emerge Herbicidal Activity, phytotoxicity rating (0-100), IPOHE ([7]; 63 g ai/ha) | phytotoxicity rating SETVI ([17]; 63 g ai/ha) | phytotoxicity rating SETVI ([17]; 250 g ai/ha)
75: Pre-emerge phytotoxicity rating (0-100), crop damage, RICE ([13]; 250 g ai/ha)
10: Pre-emerge phytotoxicity rating (0-100), crop damage, CORN ([14]; 63 g ai/ha)
50: Pre-emerge Herbicidal Activity, phytotoxicity rating (0-100), AMBEL ([8]; 63 g ai/ha)
0: phytotoxicity rating DIGSA ([23]; 63 g ai/ha) | phytotoxicity rating ECHCG ([24]; 63 g ai/ha)
100: Pre-emerge Herbicidal Activity, phytotoxicity rating (0-100), AMARE ([3]; 63 g ai/ha) | Pre-emerge Herbicidal Activity, phytotoxicity rating (0-100), AMARE ([3]; 250 g ai/ha) | Pre-emerge Herbicidal Activity, phytotoxicity rating (0-100), SETVI ([5]; 63 g ai/ha) | Pre-emerge Herbicidal Activity, phytotoxicity rating (0-100), SETVI ([5]; 250 g ai/ha) | Pre-emerge Herbicidal Activity, phytotoxicity rating (0-100), ABUTH ([6]; 63 g ai/ha) | Pre-emerge Herbicidal Activity, phytotoxicity rating (0-100), ABUTH ([6]; 250 g ai/ha) | Pre-emerge Herbicidal Activity, phytotoxicity rating (0-100), IPOHE ([7]; 250 g ai/ha) | Pre-emerge Herbicidal Activity, phytotoxicity rating (0-100), CHEAL ([9]; 63 g ai/ha) | Pre-emerge Herbicidal Activity, phytotoxicity rating (0-100), CHEAL ([9]; 250 g ai/ha) | Pre-emerge Herbicidal Activity, phytotoxicity rating (0-100), CASOB ([10]; 250 g ai/ha) | Pre-emerge Herbicidal Activity, phytotoxicity rating (0-100), DIGSA ([11]; 250 g ai/ha) | phytotoxicity rating AMARE ([16]; 63 g ai/ha) | phytotoxicity rating AMARE ([16]; 250 g ai/ha) | phytotoxicity rating ABUTH ([18]; 63 g ai/ha) | phytotoxicity rating ABUTH ([18]; 250 g ai/ha) | phytotoxicity rating IPOHE ([19]; 63 g ai/ha) | phytotoxicity rating IPOHE ([19]; 250 g ai/ha) | phytotoxicity rating AMBEL ([20]; 250 g ai/ha) | phytotoxicity rating CHEAL ([21]; 63 g ai/ha) | phytotoxicity rating CHEAL ([21]; 250 g ai/ha) | phytotoxicity rating CASOB ([22]; 250 g ai/ha)
25: Pre-emerge phytotoxicity rating (0-100), crop damage, RICE ([13]; 63 g ai/ha)
80: phytotoxicity rating RICE ([1]; 250 g ai/ha) | phytotoxicity rating CORN ([2]; 250 g ai/ha)
